Measured values: ChEMBL document CHEMBL5442741, “ASAP - In vitro kinase profile” (2024)
Several values for one entry are separate records, joined by “and”; a condition that tells them apart may be missing. Identical values can stand only once.

How the values were obtained:
[1] = target: Ribosomal protein S6 kinase beta-1 (Homo sapiens) (UniProt P23443); assay: Enzymatic radiometric [Km ATP] KinaseProfiler LeadHunter assay, kinase: p70S6K, catalogue number: 14-486KP The assay has been performed by Eurofins Discovery.; conditions: ATP concentration 15.0 uM, Test compound concentration 10.0 uM
[2] = target: PI3-kinase p110-delta/p85-alpha (Homo sapiens) (UniProt P27986+O00329); assay: Enzymatic radiometric [Km ATP] KinaseProfiler LeadHunter assay, kinase: PI3 Kinase (p110-delta/p85-alpha), catalogue number: 14-604KP The assay has been performed by Eurofins Discovery.; type: protein-complex assay; conditions: ATP concentration 200.0 uM, Test compound concentration 10.0 uM
[3] = target: T1, Aurora kinase A (Homo sapiens) (UniProt O14965); assay: Enzymatic radiometric [Km ATP] KinaseProfiler LeadHunter assay, kinase: Aurora-A, catalogue number: 14-511KP The assay has been performed by Eurofins Discovery.; conditions: ATP concentration 15.0 uM, Test compound concentration 10.0 uM
T1 sequence (whole entry): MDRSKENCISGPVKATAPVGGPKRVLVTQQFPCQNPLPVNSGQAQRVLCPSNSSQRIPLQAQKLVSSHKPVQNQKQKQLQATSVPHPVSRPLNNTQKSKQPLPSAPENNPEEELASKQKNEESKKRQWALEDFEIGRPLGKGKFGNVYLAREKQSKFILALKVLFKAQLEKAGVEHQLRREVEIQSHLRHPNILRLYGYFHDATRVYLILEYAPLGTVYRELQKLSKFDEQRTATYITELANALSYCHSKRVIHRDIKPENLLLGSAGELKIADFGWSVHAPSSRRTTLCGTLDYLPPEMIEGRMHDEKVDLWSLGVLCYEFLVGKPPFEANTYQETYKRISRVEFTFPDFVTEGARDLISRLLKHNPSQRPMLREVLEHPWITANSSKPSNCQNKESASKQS

[4] = target: Tyrosine-protein kinase Fyn (Homo sapiens) (UniProt P06241); assay: Enzymatic radiometric [Km ATP] KinaseProfiler LeadHunter assay, kinase: Fyn, catalogue number: 14-441KP The assay has been performed by Eurofins Discovery.; conditions: ATP concentration 70.0 uM, Test compound concentration 10.0 uM
[5] = target: Serine/threonine-protein kinase mTOR (Homo sapiens) (UniProt P42345); assay: Enzymatic radiometric [Km ATP] KinaseProfiler LeadHunter assay, kinase: mTOR, catalogue number: 14-769KP The assay has been performed by Eurofins Discovery.; conditions: ATP concentration 70.0 uM, Test compound concentration 10.0 uM
[6] = target: T2, Mitogen-activated protein kinase kinase kinase 7 (Homo sapiens) (UniProt O43318); assay: Enzymatic radiometric [Km ATP] KinaseProfiler LeadHunter assay, kinase: TAK1, catalogue number: 14-600KP The assay has been performed by Eurofins Discovery.; conditions: ATP concentration 45.0 uM, Test compound concentration 10.0 uM
T2 sequence (whole entry): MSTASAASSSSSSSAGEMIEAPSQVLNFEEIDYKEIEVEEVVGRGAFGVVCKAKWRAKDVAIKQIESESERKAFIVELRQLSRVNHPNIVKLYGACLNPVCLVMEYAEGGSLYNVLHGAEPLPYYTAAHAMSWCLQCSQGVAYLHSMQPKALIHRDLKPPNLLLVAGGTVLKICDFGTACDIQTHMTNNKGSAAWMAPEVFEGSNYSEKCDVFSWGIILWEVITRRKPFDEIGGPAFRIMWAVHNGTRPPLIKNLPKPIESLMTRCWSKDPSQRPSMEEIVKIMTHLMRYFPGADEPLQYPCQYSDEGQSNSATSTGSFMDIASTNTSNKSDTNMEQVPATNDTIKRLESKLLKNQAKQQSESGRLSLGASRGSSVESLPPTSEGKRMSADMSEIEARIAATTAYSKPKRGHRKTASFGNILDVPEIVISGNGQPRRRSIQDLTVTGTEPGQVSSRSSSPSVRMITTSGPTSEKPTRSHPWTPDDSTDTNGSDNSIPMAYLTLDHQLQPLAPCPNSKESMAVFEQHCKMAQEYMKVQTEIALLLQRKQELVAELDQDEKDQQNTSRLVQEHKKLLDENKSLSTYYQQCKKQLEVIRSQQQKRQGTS

[7] = target: CDK7/Cyclin H/MNAT1 (Homo sapiens) (UniProt P51946+P50613+P51948); assay: Enzymatic radiometric [Km ATP] KinaseProfiler LeadHunter assay, kinase: CDK7/cyclinH/MAT1, catalogue number: 14-476KP The assay has been performed by Eurofins Discovery.; type: protein-complex assay; conditions: ATP concentration 90.0 uM, Test compound concentration 10.0 uM
[8] = target: Phosphatidylinositol 4,5-bisphosphate 3-kinase catalytic subunit gamma isoform (Homo sapiens) (UniProt P48736); assay: Enzymatic radiometric [Km ATP] KinaseProfiler LeadHunter assay, kinase: PI3 Kinase (p120-gamma), catalogue number: 14-558KP The assay has been performed by Eurofins Discovery.; conditions: ATP concentration 100.0 uM, Test compound concentration 10.0 uM
[9] = target: T3, MAP kinase-activated protein kinase 5 (Homo sapiens) (UniProt Q8IW41); assay: Enzymatic radiometric [Km ATP] KinaseProfiler LeadHunter assay, kinase: PRAK, catalogue number: 14-334KP The assay has been performed by Eurofins Discovery.; conditions: ATP concentration 15.0 uM, Test compound concentration 10.0 uM
T3 sequence (whole entry): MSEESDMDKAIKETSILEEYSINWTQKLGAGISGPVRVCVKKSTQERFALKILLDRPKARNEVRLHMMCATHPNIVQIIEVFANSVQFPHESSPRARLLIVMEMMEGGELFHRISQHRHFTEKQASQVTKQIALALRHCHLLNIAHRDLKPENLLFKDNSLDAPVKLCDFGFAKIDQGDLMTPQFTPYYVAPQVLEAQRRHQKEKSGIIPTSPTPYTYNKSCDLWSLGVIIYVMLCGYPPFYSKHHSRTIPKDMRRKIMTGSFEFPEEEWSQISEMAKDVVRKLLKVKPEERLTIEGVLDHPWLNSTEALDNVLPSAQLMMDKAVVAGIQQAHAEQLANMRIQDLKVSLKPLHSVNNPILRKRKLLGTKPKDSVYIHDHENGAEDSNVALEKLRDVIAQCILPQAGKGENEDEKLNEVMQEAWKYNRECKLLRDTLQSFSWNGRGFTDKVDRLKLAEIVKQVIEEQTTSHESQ

Phosphatidylinositol 4,5-bisphosphate 3-kinase catalytic subunit gamma isoform (Homo sapiens), sequence (P48736 whole entry, looked up, canonical isoform): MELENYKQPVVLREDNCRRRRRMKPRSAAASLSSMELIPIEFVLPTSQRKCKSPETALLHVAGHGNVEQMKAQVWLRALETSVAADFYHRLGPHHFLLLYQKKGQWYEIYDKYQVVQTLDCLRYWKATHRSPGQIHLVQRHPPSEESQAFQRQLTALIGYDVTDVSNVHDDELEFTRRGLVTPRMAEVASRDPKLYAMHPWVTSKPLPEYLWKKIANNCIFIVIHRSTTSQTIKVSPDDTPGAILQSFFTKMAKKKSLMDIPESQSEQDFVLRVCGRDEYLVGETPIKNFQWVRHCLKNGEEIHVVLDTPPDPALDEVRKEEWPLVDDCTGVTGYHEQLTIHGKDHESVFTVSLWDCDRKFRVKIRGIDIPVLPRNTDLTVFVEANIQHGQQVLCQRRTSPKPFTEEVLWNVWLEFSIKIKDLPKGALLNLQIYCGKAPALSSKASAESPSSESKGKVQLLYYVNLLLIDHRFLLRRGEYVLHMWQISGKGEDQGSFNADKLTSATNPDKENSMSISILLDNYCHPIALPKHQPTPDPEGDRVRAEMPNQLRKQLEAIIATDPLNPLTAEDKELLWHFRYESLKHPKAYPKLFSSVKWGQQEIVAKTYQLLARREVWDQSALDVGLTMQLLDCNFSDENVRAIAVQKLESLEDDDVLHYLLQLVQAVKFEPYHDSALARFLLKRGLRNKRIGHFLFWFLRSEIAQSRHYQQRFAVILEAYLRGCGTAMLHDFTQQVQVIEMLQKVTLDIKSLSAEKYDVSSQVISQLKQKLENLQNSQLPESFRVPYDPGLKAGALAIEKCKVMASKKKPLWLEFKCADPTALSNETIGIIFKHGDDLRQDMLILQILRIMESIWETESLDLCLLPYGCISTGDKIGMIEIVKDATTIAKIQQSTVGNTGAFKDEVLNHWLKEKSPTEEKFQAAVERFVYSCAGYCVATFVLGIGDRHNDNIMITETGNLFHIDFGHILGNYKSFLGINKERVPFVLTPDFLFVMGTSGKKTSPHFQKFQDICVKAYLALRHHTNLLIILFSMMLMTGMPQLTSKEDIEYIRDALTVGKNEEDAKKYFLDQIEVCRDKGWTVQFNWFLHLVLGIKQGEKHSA
Ribosomal protein S6 kinase beta-1 (Homo sapiens), sequence (P23443 whole entry, looked up): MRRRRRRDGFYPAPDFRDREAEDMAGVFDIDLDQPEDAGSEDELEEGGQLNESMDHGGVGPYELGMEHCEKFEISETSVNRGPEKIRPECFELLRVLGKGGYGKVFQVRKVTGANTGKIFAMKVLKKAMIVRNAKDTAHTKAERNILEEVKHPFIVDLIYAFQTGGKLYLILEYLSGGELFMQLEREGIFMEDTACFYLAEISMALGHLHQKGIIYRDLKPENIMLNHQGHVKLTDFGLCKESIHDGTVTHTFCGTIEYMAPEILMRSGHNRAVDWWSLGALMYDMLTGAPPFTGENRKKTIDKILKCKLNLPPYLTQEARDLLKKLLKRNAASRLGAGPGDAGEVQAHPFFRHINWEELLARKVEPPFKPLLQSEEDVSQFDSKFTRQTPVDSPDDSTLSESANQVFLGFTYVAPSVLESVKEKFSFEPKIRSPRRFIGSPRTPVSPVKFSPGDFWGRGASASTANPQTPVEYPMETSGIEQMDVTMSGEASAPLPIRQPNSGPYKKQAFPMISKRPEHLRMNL
Tyrosine-protein kinase Fyn (Homo sapiens), sequence (P06241 2-537 limits assumed): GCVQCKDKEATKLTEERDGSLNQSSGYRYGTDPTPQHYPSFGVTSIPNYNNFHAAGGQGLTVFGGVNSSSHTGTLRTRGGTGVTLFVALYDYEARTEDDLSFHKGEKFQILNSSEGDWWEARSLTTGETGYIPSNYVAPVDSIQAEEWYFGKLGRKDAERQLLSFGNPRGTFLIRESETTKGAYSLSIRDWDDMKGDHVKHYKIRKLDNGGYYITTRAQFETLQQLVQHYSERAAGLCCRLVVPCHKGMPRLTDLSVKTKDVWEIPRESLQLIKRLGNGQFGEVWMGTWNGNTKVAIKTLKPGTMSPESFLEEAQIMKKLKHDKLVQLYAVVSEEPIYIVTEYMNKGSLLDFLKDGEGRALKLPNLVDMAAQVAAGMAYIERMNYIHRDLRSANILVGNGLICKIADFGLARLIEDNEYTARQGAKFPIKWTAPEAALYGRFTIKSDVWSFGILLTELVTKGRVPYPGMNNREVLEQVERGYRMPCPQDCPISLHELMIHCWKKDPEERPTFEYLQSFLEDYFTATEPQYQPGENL

SMILES	Activity [1]	Activity [2]	Activity [3]	Activity [4]	Activity [5]	Activity [6]	Activity [7]	Activity [8]	Activity [9]
CC(C)[C@@H](Nc1ncnc2[nH]c(C(=O)N[C@@H]3CCN(C)C3)cc12)c1ccc2c(c1)S(=O)(=O)CCC2	104%	99%	97%	107%	103%	100%	101%	97%	111%
C[C@H](C(=O)O)[C@@H](NC(=O)c1ncnc2[nH]ccc12)c1ccc(Br)cc1	97%	97%	72%	98%	100%	95%	99%	97%	88%
COc1ccc([C@@H](Cc2nnn[nH]2)NC(=O)c2ncnc3[nH]ccc23)cc1	81%	99%	71%	105%	95%	88%	91%	89%	95%
CC(C)[C@@H](Nc1ncnc2[nH]c(-c3cnn(C)c3C#N)cc12)c1ccc2c(n1)OCCO2	82% and 106%	55% and 61%	44% and 58%	56% and 55%	83% and 102%	103% and 100%	101% and 102%	63% and 78%	95% and 89%
Cn1ncc(-c2cc3c(N[C@@H](c4ccc5c(n4)OCCO5)C(C)(C)C)ncnc3[nH]2)c1C#N	108%	73%	95%	82%	105%	95%	108%	88%	86%
CC(C)[C@H](Nc1ncnc2[nH]c(-c3cnn(C)c3C#N)cc12)c1ccc2c(n1)OCCO2	125%	66%	53%	80%	104%	94%	98%	80%	84%
COc1ccc([C@H](Cc2nnn[nH]2)NC(=O)c2ncnc3[nH]ccc23)cc1	113%	97%	84%	102%	97%	99%	107%	88%	109%

Further lines, results first:

Activity [1]	Activity [2]	Activity [3]	Activity [4]	Activity [5]	Activity [6]	Activity [7]	Activity [8]	Activity [9]	SMILES
98%	101%	57%	127%	102%	83%	85%	103%	107%	CC(C)[C@@H](Nc1ncnc2[nH]ccc12)c1ccc2c(c1)S(=O)(=O)CCC2
108%	101%	55%	32%	96%	100%	93%	96%	82%	Cc1nn(C)cc1-c1cc2c(N[C@H](c3ccc4c(c3)S(=O)(=O)CCC4)C(C)C)ncnc2[nH]1
103%	99%	51%	96%	99%	90%	89%	98%	102%	CC(C)[C@H](Nc1ncnc2[nH]ccc12)c1ccc2c(c1)S(=O)(=O)CCC2
100%	87%	77%	65%	104%	99%	95%	93%	89%	CNC(=O)Cn1cc(-c2cc3c(N[C@@H](c4ccc5c(c4)S(=O)(=O)CCC5)C(C)C)ncnc3[nH]2)cn1
110%	80%	73%	64%	105%	90%	100%	96%	122%	CNCc1cc(-c2cc3c(N[C@@H](c4ccc5c(c4)S(=O)(=O)CCC5)C(C)C)ncnc3[nH]2)co1
